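Five compound concentrations were applied to cells in 96-well plates for 48 hours; endpoints were derived by simple linear interpolation of the resulting dose-response curve. TGI is the concentration that stops growth completely.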
What was measured:
Assay in all cases: DTP human tumour cell line panel, 48 h
786-0 renal = system: 786-0 renal
A498 renal = system: A498 renal
A549 NSCLC = system: A549 NSCLC
ACHN renal = system: ACHN renal
BT-549 breast = system: BT-549 breast
CAKI-1 renal = system: CAKI-1 renal
CCRF-CEM leukemia = system: CCRF-CEM leukemia
COLO 205 colon = system: COLO 205 colon
DU-145 prostate = system: DU-145 prostate
EKVX NSCLC = system: EKVX NSCLC
HCC-2998 colon = system: HCC-2998 colon
HCT-116 colon = system: HCT-116 colon
HCT-15 colon = system: HCT-15 colon
HOP-62 NSCLC = system: HOP-62 NSCLC
HOP-92 NSCLC = system: HOP-92 NSCLC
HS 578T breast = system: HS 578T breast
HT29 colon = system: HT29 colon
IGROV1 ovarian = system: IGROV1 ovarian
K-562 leukemia = system: K-562 leukemia
KM12 colon = system: KM12 colon
LOX IMVI melanoma = system: LOX IMVI melanoma
M14 melanoma = system: M14 melanoma
MCF7 breast = system: MCF7 breast
MDA-MB-231 breast = system: MDA-MB-231 breast
MDA-MB-435 = system: MDA-MB-435
MOLT-4 leukemia = system: MOLT-4 leukemia
NCI-H226 lung = system: NCI-H226 lung
NCI-H23 lung = system: NCI-H23 lung
NCI-H522 lung = system: NCI-H522 lung
NCI/ADR-RES ovarian = system: NCI/ADR-RES ovarian
OVCAR-3 ovarian = system: OVCAR-3 ovarian
OVCAR-4 ovarian = system: OVCAR-4 ovarian
OVCAR-5 ovarian = system: OVCAR-5 ovarian
OVCAR-8 ovarian = system: OVCAR-8 ovarian
PC-3 prostate = system: PC-3 prostate
RPMI-8226 leukemia = system: RPMI-8226 leukemia
RXF 393 renal = system: RXF 393 renal
SF-268 CNS = system: SF-268 CNS
SF-295 CNS = system: SF-295 CNS
SF-539 CNS = system: SF-539 CNS
SK-MEL-2 melanoma = system: SK-MEL-2 melanoma
SK-MEL-28 melanoma = system: SK-MEL-28 melanoma
SK-MEL-5 melanoma = system: SK-MEL-5 melanoma
SK-OV-3 ovarian = system: SK-OV-3 ovarian
SN12C renal = system: SN12C renal
SNB-19 CNS = system: SNB-19 CNS
SNB-75 CNS = system: SNB-75 CNS
SW-620 colon = system: SW-620 colon
T-47D breast = system: T-47D breast
TK-10 renal = system: TK-10 renal
U251 CNS = system: U251 CNS
UACC-257 melanoma = system: UACC-257 melanoma
UACC-62 melanoma = system: UACC-62 melanoma
UO-31 renal = system: UO-31 renal
HL-60(TB) leukemia = system: HL-60(TB) leukemia
MALME-3M melanoma = system: MALME-3M melanoma
NCI-H460 lung = system: NCI-H460 lung

Measured: TGI

NC1CC(=O)c2ccccc21 (configuration not stated)
not listed: HL-60(TB) leukemia | MALME-3M melanoma | NCI-H460 lung
> 100 µM: all other assays above

c1ccc(-c2cn3nc(N4CCOCC4)sc3n2)cc1
not listed: A498 renal | HOP-92 NSCLC | LOX IMVI melanoma | SF-539 CNS
> 100 µM: all other assays above

From PubChem BioAssay (NCI)
